Values quoted from earlier work as cited in patent US20130190270A1, “Method for Improving Vein Performance in Bypass Surgery” (priority 2012, published 2013).
Where two headings read alike, the source gives them in different places.

How the values were obtained:
atherosclerosis [1] = conditions: guinea pigs
atherosclerosis [2] = conditions: mice
atherosclerosis [3] = conditions: humans
circulating sPLA2-IIA = conditions: patients who underwent CABG

Compound	effect on atherosclerosis (atherosclerosis [1])	effect on atherosclerosis (atherosclerosis [2])	effect on atherosclerosis (atherosclerosis [3])	effect on circulating sPLA2-IIA levels (circulating sPLA2-IIA)
CCc1c(C(=O)C(N)=O)c2c(OCC(=O)O)cccc2n1Cc1ccccc1	can reduce atherosclerosis	can reduce atherosclerosis	can reduce atherosclerosis	–
heparin	–	–	–	induce increased circulating sPLA2-IIA levels
